Values of other authors, collected in patent KR20220033790A, “장 정결용 조성물” (강윤식, priority 2020, dated 2022).

System: blood glucose (혈당)
Settings: scale 0-100, glucose = 100 at 2 h after intake; background statement

In the case of `OC[C@@H](O)[C@@H](O)[C@H](O)[C@@H](O)CO.OC[C@@H](O)[C@@H](O)[C@H](O)[C@@H](O)CO` [소르비톨], the “Glycemic index (GI)” value is given as 4.
For `OC[C@@H](O)[C@H](O)[C@@H](O)CO` [자일리톨], the “Glycemic index (GI)” value is listed as 14.
